The text below walks through data of patent publication US11697646B2, “Triazole N-linked carbamoyl cyclohexyl acids as LPA antagonists” (BRISTOL-MYERS SQUIBB COMPANY, priority 2017, dated 2023).

SMILES strings stand for the structures. Where two headings read alike, the source gives them in different places.

The assay has as its target T1, human LPA1 (Homo sapiens, UniProt Q92633).
T1 construct: expressed in transfected cells; host or cells: Chinese hamster ovary (CHO) cells
Nature of the assay: LPA1 functional antagonist assay (calcium flux). The class given is cell-based. As to conditions: read-out: hLPA1 IC50. How it is done:
The effectiveness of compounds of the present invention as LPA1 inhibitors can be determined in an LPA1 functional antagonist assay as follows:
The cells were then equilibrated to room temperature for 30 minutes before the assay. […] IC50 values were determined by fitting data to a 4-parameter logistic equation (GraphPad Prism, San Diego Calif.).
A general note: A change in cytosolic calcium serves as a functional read-out for many receptors and channels.

The mark [1] stands for this setting: CHO cells overexpressing human LPA1, calcium flux induced by 10 nM LPA.
Setting [2] is: human LPA1 functional antagonist assay.

T1 sequence (Q92633 whole entry): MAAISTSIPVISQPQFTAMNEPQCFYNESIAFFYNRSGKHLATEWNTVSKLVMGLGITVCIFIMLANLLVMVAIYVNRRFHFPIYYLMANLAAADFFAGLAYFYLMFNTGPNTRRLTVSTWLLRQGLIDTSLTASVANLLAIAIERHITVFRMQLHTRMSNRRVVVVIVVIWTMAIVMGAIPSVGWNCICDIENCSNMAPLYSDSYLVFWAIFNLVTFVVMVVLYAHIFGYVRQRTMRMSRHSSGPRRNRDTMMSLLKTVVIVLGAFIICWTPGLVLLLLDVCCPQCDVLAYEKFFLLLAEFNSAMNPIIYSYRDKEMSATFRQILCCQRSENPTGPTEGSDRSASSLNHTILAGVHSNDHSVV

As for `CC(COC(=O)NCc1c(-c2ccc(O[C@H]3CCC[C@H](C(=O)O)C3)cn2)nnn1C)CC(F)(F)F` (mixture of isomers) [Example 31, (1S,3S)-3-((6-(1-methyl-5-((((4,4,4-trifluoro-2-methylbutoxy)carbonyl)amino)methyl)-1H-1,2,3-triazol-4-yl)pyridin-3-yl)oxy)cyclohexanecarboxylic acid], under setting [1], the IC50 worked out at 102 nM.

Regarding `Cc1nc(-c2nnn(C)c2CNC(=O)OCC(C)CC(F)(F)F)ccc1O[C@H]1CCC[C@H](C(=O)O)C1` (mixture of isomers) [Example 32, (1S,3S)-3-((2-methyl-6-(1-methyl-5-((((4,4,4-trifluoro-2-methylbutoxy)carbonyl)amino)methyl)-1H-1,2,3-triazol-4-yl)pyridin-3-yl)oxy)cyclo-hexane-1-carboxylic acid], the concentration for half-maximal inhibition (IC50) under setting [1] was found to be 69 nM. Regarding `Cn1nnc(-c2ccc(O[C@H]3CCC[C@H](C(=O)O)C3)cn2)c1CNC(=O)OCC1CC(F)C1` (mixture of isomers) [Example 47, (1S,3S)-3-((6-(5-(((((3-fluorocyclobutyl)methoxy)carbonyl)amino)methyl)-1-methyl-1H-1,2,3-triazol-4-yl)pyridin-3-yl)oxy)cyclohexane-1-carboxylic acid], the IC50 under setting [1] turned out to be 854 nM. On to `Cc1nc(-c2nnn(C)c2CNC(=O)OCC2CC(F)C2)ccc1O[C@H]1CCC[C@H](C(=O)O)C1` (mixture of isomers) [Example 48, (1S,3S)-3-((6-(5-(((((3-fluorocyclobutyl)methoxy)carbonyl)amino)methyl)-1-methyl-1H-1,2,3-triazol-4-yl)-2-methylpyridin-3-yl)oxy)cyclohexane-1-carboxylic acid], for which, under setting [1], the IC50 was 48 nM. In the case of `Cc1nc(-c2nnn(C)c2NC(=O)OC(C)C2CC2)ccc1O[C@H]1CCC[C@H](C(=O)O)C1` (mixture of isomers) [Example 69, (1S,3S)-3-((6-(5-(((1-cyclopropyl-ethoxy)carbonyl)amino)-1-methyl-1H-1,2,3-triazol-4-yl)-2-methyl-pyridin-3-yl)oxy)cyclohexane-1-carboxylic acid], the IC50 under setting [1] turned out to be 85 nM.

Take `CCC(C)CNC(=O)NCc1c(-c2ccc(O[C@H]3CCC[C@H](C(=O)O)C3)c(C)n2)nnn1C` (mixture of isomers) [Example 118, (1S,3S)-3-((2-methyl-6-(1-methyl-5-((3-(2-methylbutyl)ureido)methyl)-1H-1,2,3-triazol-4-yl)pyridin-3-yl)oxy)cyclo-hexane-1-carboxylic acid]: under setting [1], the IC50 is 105 nM. `CCCC(NC(=O)NCc1c(-c2ccc(O[C@H]3CCC[C@H](C(=O)O)C3)c(C)n2)nnn1C)c1ccccc1` (mixture of isomers) [Example 119, (1S,3S)-3-((2-methyl-6-(1-methyl-5-((3-(1-phenylbutyl)ureido)methyl)-1H-1,2,3-triazol-4-yl)pyridin-3-yl)oxy)cyclo-hexane-1-carboxylic acid]: the IC50 under setting [1] is 187 nM. In the case of `CCC(NC(=O)NCc1c(-c2ccc(O[C@H]3CCC[C@H](C(=O)O)C3)c(C)n2)nnn1C)c1ccccc1` (mixture of isomers) [Example 120, (1S,3S)-3-((2-methyl-6-(1-methyl-5-((3-(1-phenylpropyl)ureido)methyl)-1H-1,2,3-triazol-4-yl)pyridin-3-yl)oxy)cyclo-hexane-1-carboxylic acid], the IC50 under setting [1] came to 238 nM. `Cc1nc(-c2nnn(C)c2CNC(=O)NC(CF)c2ccccc2)ccc1O[C@H]1CCC[C@H](C(=O)O)C1` (mixture of isomers) [Example 121, (1S,3S)-3-((6-(5-((3-(2-fluoro-1-phenyl-ethyl)ureido)methyl)-1-methyl-1H-1,2,3-triazol-4-yl)-2-methylpyridin-3-yl)oxy)cyclohexane-1-carboxylic acid]: under setting [1], the IC50 was 555 nM.

Turning to `Cc1nc(-c2nnn(C)c2CNC(=O)NC(C)c2ccccc2)ccc1O[C@H]1CCC[C@H](C(=O)O)C1` (mixture of isomers) [Example 129, (1S,3S)-3-((2-methyl-6-(1-methyl-5-((3-(1-phenylethyl)ureido)methyl)-1H-1,2,3-triazol-4-yl)pyridin-3-yl)oxy)cyclo-hexane-1-carboxylic acid], the IC50 under setting [1] amounted to 142 nM. Consider `CCCC(C)NC(=O)Nc1c(-c2ccc(O[C@H]3CCC[C@H](C(=O)O)C3)c(C)n2)nnn1C` (mixture of isomers) [Example 147, (1S,3S)-3-((2-methyl-6-(1-methyl-5-(3-(pentan-2-yl)ureido)-1H-1,2,3-triazol-4-yl)pyridin-3-yl)oxy)cyclo-hexane-1-carboxylic acid], for which, under setting [1], the IC50 was 517 nM.

Turning to `Cc1nc(-c2nnn(C)c2CNC(=O)OCC2CC2(F)F)ccc1O[C@H]1CCC[C@H](C(=O)O)C1` (mixture of isomers) [Example 180, (1S,3S)-3-((6-(5-(((((2,2-difluoro-cyclopropyl)methoxy)carbonyl)amino)methyl)-1-methyl-1H-1,2,3-triazol-4-yl)-2-methylpyridin-3-yl)oxy)cyclohexane-1-carboxylic acid (diastereomers at cyclopropyl carbon)], under setting [2], the IC50 amounted to 53 nM.

In the case of `Cc1nc(-c2nnn(C)c2CNC(=O)OCC(C)C(F)(F)F)ccc1O[C@H]1CCC[C@H](C(=O)O)C1` (mixture of isomers) [Example 204, (1S,3S)-3((2-methyl-6-(1-methyl-5-((((3,3,3-trifluoro-2-methylpropoxy)carbonyl)amino)methyl)-1H-1,2,3-triazol-4-yl)pyridin-3-yl)oxy)cyclohexane-1-carboxylic acid], the concentration for half-maximal inhibition (IC50) under setting [2] worked out at 96 nM.

In the case of `Cc1nc(-c2nnn(C)c2NC(=O)OCC2CC2C)ccc1O[C@H]1CCC[C@H](C(=O)O)C1` (mixture of isomers) [Example 223, (1S,3S)-3((2-methyl-6-(1-methyl-5-((((2-methylcyclopropyl)methoxy)carbonyl)amino)-1H-1,2,3-triazol-4-yl)pyridin-3-yl)oxy)cyclohexane-1-carboxylic acid (mixture of cyclopropyl diastereomers)], the IC50 under setting [1] was determined as 52 nM. As for `Cc1nc(-c2nnn(C)c2CCNC(=O)CC(C)CC(C)(C)C)ccc1O[C@H]1CCC[C@H](C(=O)O)C1` (mixture of isomers) [Example 239, (1S,3S)-3-((2-methyl-6-(1-methyl-5-(2-(3,5,5-trimethylhexanamido)ethyl)-1H-1,2,3-triazol-4-yl)pyridin-3-yl)oxy)cyclohexane-1-carboxylic acid (diastereomeric mixture)], under setting [1], the IC50 was found to be 1020 nM. With `CC(C)CCOC(=O)NCc1c(-c2ccc(O[C@@H]3CCC[C@@H](C(=O)O)C3)cc2)nnn1C` (racemic) [Example 4, (±)-(trans)-3-(4-(5-((((isopentyloxy)carbonyl)amino)methyl)-1-methyl-1H-1,2,3-triazol-4-yl)phenoxy)cyclohexane-1-carboxylic acid], the IC50 under setting [1] was 148 nM. `Cn1nnc(-c2ccc(O[C@@H]3CCC[C@@H](C(=O)O)C3)cc2)c1CNC(=O)OCCC1CC1` (racemic) [Example 39, (±)-trans-3-(4-(5-((((2-cyclopropylethoxy)carbonyl)amino)methyl)-1-methyl-1H-1,2,3-triazol-4-yl)phenoxy)cyclohexane-1-carboxylic acid]: under setting [1], the IC50 came to 457 nM.

The IC50 is the point on the concentration scale where inhibition reaches its midpoint.
